Assays:
E. faecium ATCC 27270 = assay: MIC and combination against Gram-positive bacteria; format: cell-based
Protocol: (§1) Next, we investigated whether tobramycin by itself would potentiate novobiocin against Gram-negative bacteria.
(§2) Antimicrobial Susceptibility Assay. The in vitro antimicrobial activity of all compounds/antibiotics against a panel of bacteria was evaluated by microbroth dilution method in accordance with the Clinical and Laboratory Standards Institute (CLSI) guidelines (using ATCC strains as quality control strains) (54). Overnight grown bacterial cultures were diluted in saline to achieve a 0.5 McFarland turbidity, followed by 1:50 dilution in Mueller-Hinton broth (MHB) for inoculation to a final concentration of approximately 5×10^5 CFU/mL. […] The lowest concentration that prevented the visible growth of bacteria was defined as the MIC for each antimicrobial agent. The broth with or without bacterial cells was used as positive or negative control, respectively.

MRSE 61589 = assay: MIC and combination against Gram-positive bacteria; format: cell-based
Protocol: as §1, §2

MRSA ATCC 33592 = assay: MIC and combination against Gram-positive bacteria; format: cell-based; conditions: MRSA ATCC 33592
Protocol: as §1, §2

E. coli = assay: Checkerboard assay (antibiotic + adjuvant combination MIC); format: cell-based, Escherichia coli; conditions: for MIC of Novobiocin +Compound 1: 1 at ≤7.1 μM; for MIC of Novobiocin + adjuvant (7.1 μM): PMBN or 1 at 7.1 μM; for Fold Potentiation: novobiocin + 1 at ≤7.1 μM
Protocol: as §2
(§3) Checkerboard Assay. Combination studies with different antibiotics were performed in 96-well plates as previously described (19). Briefly, the antibiotic of interest was serially diluted in MHB along the abscissa while the adjuvant (tobramycin homodimer) was serially diluted in MHB along the ordinate. This creates a 10×7 matrices wherein each well consists of a combination of different antibiotic and adjuvant concentrations. Overnight grown bacterial cultures were diluted in saline to achieve a 0.5 McFarland turbidity, followed by 1:50 dilution in Mueller-Hinton broth (MHB) for inoculation to a final concentration of approximately 5×10^5 CFU/mL. […] MIC was recorded as wells with the lowest concentration of drugs with no bacterial growth. The fractional inhibitory concentration (FIC) for each antibiotic was calculated by dividing the MIC of the antibiotic in the presence of adjuvant by the MIC of the antibiotic alone. Similarly, the FIC of adjuvant was calculated by dividing the MIC of the adjuvant in the presence of antibiotic by the MIC of the adjuvant alone. FIC index is the sum of both FICs. FIC indices of ≤0.5 were deemed synergistic; >0.5-4, no interaction; and >4, antagonistic.

A. baumannii = assay: as above; format: cell-based, Acinetobacter baumannii; conditions: for MIC of Novobiocin +Compound 1: 1 at ≤7.1 μM; for Fold Potentiation: novobiocin + 1 at ≤7.1 μM
Protocol: as §2, §3

A. baumannii ATCC 17978 = assay: microbe, parasite or virus in culture; format: cell-based, Acinetobacter baumannii; conditions: seven serial passages
Protocol: Development of Resistance Study. […] Tobramycin and colistin were included as controls. At 24-hour intervals, the cultures were assessed for growth. […] This serial passaging was repeated for 8 days.

MDR A. baumannii = assay: Galleria mellonella in vivo larvae-infection model; conditions: single dose 100 mg/kg, agent alone; after 24 h
Protocol: Galleria mellonella In vivo Larvae-Infection Model. In vivo synergistic effects were determined using Galleria mellonella infection model, as previously described (49). Briefly, larvae were purchased from The Worm Lady Live Feeder (ON, Canada), stored in their natural habitat at 16° C., and used within 10 days of delivery. The larvae (average weight of 250 mg) were used for tolerability and efficacy studies. Tolerability study was performed by injecting a 10 μL aliquot of antimicrobial agents only at concentrations equivalent to 100 mg/kg or 200 mg/kg. The larvae (ten in each group) were incubated at 37° C. and monitored for 96 h. For efficacy studies, the virulence and bacterial load required to kill 100% of the larvae within 24 h (with no treatment) was first determined, which is approximately 10 CFU. Overnight grown culture of respective MDR A. baumannii isolate was standardized to 0.5 McFarland standard and diluted in PBS to a final concentration of 10^3 CFU/mL. A 10 μL aliquot of this solution (˜10 CFU) was injected into each larva and incubated for 3 h at 37° C. […] Larvae treated with 10 μL of PBS or high concentrations of test antibiotics served as negative and positive control, respectively. The larvae were incubated at 37° C. in Petri dishes lined with filter paper and scored for survivability every 6 h for up to 36 h. […]

K. pneumoniae = assay: Checkerboard assay (antibiotic + adjuvant combination MIC); format: cell-based, Klebsiella pneumoniae; conditions: for MIC of Novobiocin +Compound 1: 1 at ≤7.1 μM; for Fold Potentiation: novobiocin + 1 at ≤7.1 μM
Protocol: as §2, §3

E. cloacae = assay: as above; format: cell-based, Enterobacter cloacae; conditions: for MIC of Novobiocin +Compound 1: 1 at ≤7.1 μM; for Fold Potentiation: novobiocin + 1 at ≤7.1 μM
Protocol: as §2, §3

P. aeruginosa = assay: as above; format: cell-based, Pseudomonas aeruginosa; conditions: for MIC of Novobiocin +Compound 1: 1 at ≤7.1 μM; for MIC of Novobiocin + adjuvant (7.1 μM): PMBN or 1 at 7.1 μM

NC[C@H]1O[C@H](O[C@H]2[C@H](OCCCCc3cn(CCCCO[C@@H]4[C@@H](O[C@H]5O[C@H](CO)[C@@H](O)[C@H](N)[C@H]5O)[C@H](N)C[C@H](N)[C@H]4O[C@H]4O[C@H](CN)[C@@H](O)C[C@H]4N)nn3)[C@@H](O[C@H]3O[C@H](CO)[C@@H](O)[C@H](N)[C@H]3O)[C@H](N)C[C@@H]2N)[C@H](N)C[C@@H]1O.O=C(O)C(F)(F)F.O=C(O)C(F)(F)F.O=C(O)C(F)(F)F.O=C(O)C(F)(F)F.O=C(O)C(F)(F)F.O=C(O)C(F)(F)F.O=C(O)C(F)(F)F.O=C(O)C(F)(F)F.O=C(O)C(F)(F)F.O=C(O)C(F)(F)F [Compound 1, Tobramycin Homodimer 1]
effect of addition of compound 1 on activity of novobiocin (E. faecium ATCC 27270): did not improve | effect of addition of compound 1 on activity of novobiocin (MRSE 61589): did not improve | effect of addition of compound 1 on activity of novobiocin (MRSA ATCC 33592): did not improve | MIC of Novobiocin +Compound 1 (E. coli; E. coli 94393): 2 µg/mL | MIC of Novobiocin + adjuvant (7.1 μM) (E. coli; E. coli 94393): 2 µg/mL | Fold Potentiation (E. coli; E. coli 94393): 64 fold | MIC of Novobiocin +Compound 1 (E. coli; E. coli 94474): 16 µg/mL | MIC of Novobiocin + adjuvant (7.1 μM) (E. coli; E. coli 94474): 16 µg/mL | Fold Potentiation (E. coli; E. coli 94474): 16 fold | MIC of Novobiocin +Compound 1 (E. coli; E. coli 107115): 8 µg/mL | Fold Potentiation (E. coli; E. coli 107115): 16 fold | MIC of Novobiocin +Compound 1 (E. coli; E. coli ATCC 25922): 2 µg/mL | Fold Potentiation (E. coli; E. coli ATCC 25922): 32 fold | MIC of Novobiocin +Compound 1 (A. baumannii; A. baumannii 027): 0.5 µg/mL | Fold Potentiation (A. baumannii; A. baumannii 027): 16 fold | MIC of Novobiocin +Compound 1 (A. baumannii; A. baumannii 031): 0.5 µg/mL | Fold Potentiation (A. baumannii; A. baumannii 031): 16 fold | MIC of Novobiocin +Compound 1 (A. baumannii; A. baumannii 92247): 0.25 µg/mL | Fold Potentiation (A. baumannii; A. baumannii 92247): 16 fold | MIC of Novobiocin +Compound 1 (A. baumannii; A. baumannii 110193): 1 µg/mL | Fold Potentiation (A. baumannii; A. baumannii 110193): 256 fold | MIC of Novobiocin +Compound 1 (A. baumannii; A. baumannii ATCC 17978): 0.5 µg/mL | Fold Potentiation (A. baumannii; A. baumannii ATCC 17978): 32 fold | MIC of Novobiocin +Compound 1 (A. baumannii; A. baumannii LAC-4): 0.5 µg/mL | Fold Potentiation (A. baumannii; A. baumannii LAC-4): 16 fold | MIC of Novobiocin + adjuvant (7.1 μM) (A. baumannii; AB 92247, PMBN or 1 at 7.1 μM): 0.25 µg/mL | potentiation of novobiocin (A. baumannii; colistin-resistant mutant B of A. baumannii ATCC 17978): did not potentiate | fold potentiation of novobiocin (A. baumannii; novobiocin-resistant mutant A of A. baumannii ATCC 17978): 16 fold | MIC of novobiocin in the presence of compound 1 (A. baumannii; wild-type and MDR A. baumannii clinical isolates, ≤7.1 μM of compound 1): ≤ 1 µg/mL | resistance phenotype after exposure to sub-MIC levels (A. baumannii ATCC 17978): did not generate tobramycin-resistant phenotype | mortality of infected larvae (MDR A. baumannii): 100% | MIC of Novobiocin +Compound 1 (K. pneumoniae; K. pneumoniae 113250): 16 µg/mL | Fold Potentiation (K. pneumoniae; K. pneumoniae 113250): 32 fold | MIC of Novobiocin +Compound 1 (K. pneumoniae; K. pneumoniae 113254): 16 µg/mL | Fold Potentiation (K. pneumoniae; K. pneumoniae 113254): 16 fold | MIC of Novobiocin +Compound 1 (K. pneumoniae; K. pneumoniae 116381): 8 µg/mL | Fold Potentiation (K. pneumoniae; K. pneumoniae 116381): 128 fold | MIC of Novobiocin + adjuvant (7.1 μM) (K. pneumoniae; KP 113254, PMBN or 1 at 7.1 μM): 16 µg/mL | MIC of Novobiocin +Compound 1 (E. cloacae; E. cloacae 117029): 8 µg/mL | Fold Potentiation (E. cloacae; E. cloacae 117029): 128 fold | MIC of Novobiocin +Compound 1 (E. cloacae; E. cloacae 118568): 32 µg/mL | Fold Potentiation (E. cloacae; E. cloacae 118568): 32 fold | MIC of Novobiocin +Compound 1 (E. cloacae; E. cloacae 121187): 8 µg/mL | Fold Potentiation (E. cloacae; E. cloacae 121187): 8 fold | MIC of Novobiocin + adjuvant (7.1 μM) (E. cloacae; EC 118568, PMBN or 1 at 7.1 μM): 32 µg/mL | MIC of Novobiocin +Compound 1 (P. aeruginosa; P. aeruginosa 259-96918): 8 µg/mL | MIC of Novobiocin +Compound 1 (P. aeruginosa; P. aeruginosa 260-97103): 1 µg/mL | MIC of Novobiocin +Compound 1 (P. aeruginosa; P. aeruginosa 262-101856): 8 µg/mL | MIC of Novobiocin +Compound 1 (P. aeruginosa; P. aeruginosa 264-104354): 8 µg/mL | MIC of Novobiocin +Compound 1 (P. aeruginosa; P. aeruginosa 91433): 1 µg/mL | MIC of Novobiocin +Compound 1 (P. aeruginosa; P. aeruginosa 100036): 8 µg/mL | MIC of Novobiocin +Compound 1 (P. aeruginosa; P. aeruginosa 101243): 1 µg/mL | MIC of Novobiocin +Compound 1 (P. aeruginosa; P. aeruginosa 101885): 8 µg/mL | MIC of Novobiocin +Compound 1 (P. aeruginosa; P. aeruginosa 114228): 16 µg/mL | MIC of Novobiocin +Compound 1 (P. aeruginosa; P. aeruginosa PAO1): 4 µg/mL | MIC of Novobiocin + adjuvant (7.1 μM) (P. aeruginosa; PA 91433): 1 µg/mL | MIC of Novobiocin + adjuvant (7.1 μM) (P. aeruginosa; PA 101243): 1 µg/mL | MIC of Novobiocin + adjuvant (7.1 μM) (P. aeruginosa; PA 114228): 16 µg/mL | MIC of Novobiocin +7.1 μM Compound 1 (P. aeruginosa; PAO1 (wild-type)): 4 µg/mL | MIC of Novobiocin + adjuvant (7.1 μM) (P. aeruginosa; PAO1): 4 µg/mL | MIC of Novobiocin +7.1 μM Compound 1 (P. aeruginosa; PAO200 (efflux-deficient)): 0.125 µg/mL | MIC of Novobiocin +7.1 μM Compound 1 (P. aeruginosa; PAO750 (efflux-deficient)): 0.125 µg/mL
